SMILES strings stand for the structures.

The test system of the test is diabetic patients. Kind of test: Therapeutic effect in diabetic patients (blood glucose, urine glucose), 3 months treatment. The class given is in vivo, human. From the text: The medicament hereof is used to compare the therapeutic effects in diabetic patients, and the details are as follows:
The applicant has divided 100 diabetic patients into treatment group. Among these patients, 6 are aged 16 to 30 years old, 14 are 31 to 45 years old, 28 are 46 to 60 years old, and 52 are 61 to 75 years old.
During the treatment, the patients in the treatment group discontinue the administration of any other medicaments, and only take the medicament described in Embodiment 3 hereof, once in the morning and evening, 2 g each time; the patients in the control group take D-860 Rastinon according to the package insert, and the patients in treatment group and the control group of the invention were treated and observed for 3 months, and the results are as follows: […]

The mark [1] stands for this setting: diabetic patients aged 16-30, after 3 months treatment.
Where [2] appears, read: diabetic patients aged 31-45, after 3 months treatment.
Setting [3] is: diabetic patients aged 46-60, after 3 months treatment.
[4] abbreviates: diabetic patients aged 61-75, after 3 months treatment.

`CCCCNC(=O)NS(=O)(=O)c1ccc(C)cc1` [D-860 Rastinon]: the Blood sugar is, setting by setting: under setting [1], 6.2 mmol/L; under setting [2], 6.5 to 6.7 mmol/L; under setting [3], 7.3 to 7.6 mmol/L; under setting [4], 9.0 to 9.2 mmol/L. The Glucose in urine was 1.0 mmol/L under setting [1], 28.6 to 32.2 mmol/L under setting [2], 31 to 35 mmol/L under setting [3] and 35 to 58 mmol/L under setting [4].

The values are drawn from patent publication US10993955B2, “Medicament for use in treating diabetes” (Shandong Zhonghai Pharmaceutical CO. LTD, priority 2016, dated 2021).
